Tests used:
L6 [1] = assay: Induction of mitochondrial uncoupling in rat L6 cells assessed as stimulation of cellular oxygen consumption; format: functional, cell-based
L6 [2] = assay: Induction of mitochondrial uncoupling in rat L6 cells assessed as stimulation of cellular oxygen consumption relative to control; format: functional
[3] = Rattus norvegicus, L6, read-out: EC50

SMILES	EC50 (L6 [1]; [3]) [nM]	%max (L6 [2]) [%]	EC50 (L6 [1]; l6)
Fc1cccc(Nc2nc3nonc3nc2Nc2cccc(F)c2)c1	180	220.8	
CCONc1nc2nonc2nc1NOCC		100	ND(Insoluble)
CCCNc1nc2nonc2nc1NCCC		98	ND(Insoluble)
CCCCNc1nc2nonc2nc1NCCCC		116	ND(Insoluble)
CCCCCCNc1nc2nonc2nc1NCCCCCC		160.2	ND(Insoluble)
FC(F)(F)CONc1nc2nonc2nc1NOCC(F)(F)F		96.3	ND(Insoluble)
c1ccc(Nc2nc3nonc3nc2Nc2ccccc2)cc1		172.8	ND(Insoluble)
Fc1ccc(Nc2nc3nonc3nc2Nc2ccc(F)cc2)cc1	460	204	
Fc1ccc(Nc2nc3nonc3nc2Nc2ccc(F)cc2F)c(F)c1	40	222.6	
Clc1ccc(Nc2nc3nonc3nc2Nc2ccc(Cl)cc2)cc1	270	190.4	
c1ccc(Nc2nc3nonc3nc2Nc2ccccn2)nc1			ND(Insoluble)
c1ccc(Oc2nc3nonc3nc2Oc2ccccc2)cc1		98.3	ND(Insoluble)
Fc1ccccc1Oc1nc2nonc2nc1Oc1ccccc1F		93	ND(Insoluble)
Ic1ccccc1Oc1nc2nonc2nc1Oc1ccccc1I		98.8	ND(Insoluble)
